13 molecules from US20230027026A1, “FUSED PYRIMIDINE COMPOUNDS, COMPOSITIONS AND MEDICINAL APPLICATIONS THEREOF” (JUBILANT BIOSYS LIMITED, priority 2019, published 2023) can be followed below.

The target of one assay is T1, EGFR (T790M/L858R) (Homo sapiens, UniProt P00533, L858R/T790M).
T1 construct: GST; purchased Proqinase
The assay can be described thus: EGFR L858R/T790M enzyme inhibition assay (HTRF). The assay is classed as biochemical. The settings on record: 5 μM ATP, 60 min, read-out: EGFR_L858R T790M_IC50_nM. On the procedure:
Example 2: EGFR L858R & Del19/T790M Assay Protocol (to Find the IC50 for the Compounds Using HTRF Method)
Reagents for Enzyme Assay:
• 1. Enzyme Assay Buffer: 60 mM HEPES (pH 7.4), 50 mM NaCl, 20 mM MgCl2, 5 mM MnCl2, filtered using 0.2 μm pore size, stored at 4° C. • Supplements (added fresh to the enzyme buffer): 1M DTT stock was made, 5% BSA stock and 0.1M Na3OV4 stored at 4° C. Enzyme assay buffer 50 mL, 1 M DTT 100 μL, 5% BSA 500 μL, 0.1 M Na3OV4 50 μL. • 2. GST-hEGFR (L858R), active: EGFR (T790M/L858R), active (Proqinase), 3.6 μM stock; 2.5 nM in final assay. • 3. Gastrin Precusor-Biotinylated: Gastrin precursor (Tyr87) biotinylated peptide, EEAY*GWM, Cell Signaling Tech 1310, Lot-7, Want final 0.5 μM in assay. • 4. ATP: 10 mM stock in 100 μL Enzyme assay buffer pH 7.4 prepared freshly, want 5 μM in final assay. • 5. Test compounds: Powders were dissolved in 100% DMSO and made up to a final stock concentration of 10 mM (volume in μL to add for 10 mM=mg powder X 10^5/MW). Final compound concentration in the assay plate started at 10 μM.
• 1. HTRF buffer: 50 mM Tris —HCl, pH-7.5, 100 mM NaCl, 0.1% BSA, 0.05% Tween20, 0.5 mM EDTA, filtered using 0.2 μm pore size, stored at 4° C. • Phycolink® Streptavidin-Allophycocyanin (SA-APC) Prozyme, Cat. #PJ25S, Lot #896 085, 2.06 mg/mL, APC concentration is 11.6 μM, streptavidin concentration is 15.5 μM. Want 12 nM final in assay (based on streptavidin concentration). • 2. (Europium) Eu-W1024 Anti-phosphotyrosine (PT-66) Antibody: Perkin Elmer (Product Number: AD0068), monoclonal IgG1 that recognizes phosphotyrosine peptide 100 μg/ml stock. Want 0.1 nM final in assay.
• 1. The compound dilution was made by TECAN as per the above scheme. • 2. 16 μL of diluted compound was added to the assay plate by using TECAN. • 3. 10 μL of enzyme mix was added to each well except mins. • 4. 20 μL of substrate and ATP mix were added into each well of the assay plate, manually. • 5. The plate was incubated on a laboratory shaker at room temperature for 60 min. • 6. Meanwhile, the HTRF mix was prepared and 75 μL was added to the HTRF plate. • 7. When the incubation was over, 10 μL of the reaction mixture was transferred to the HTRF assay plate and incubated on a laboratory shaker for 30 min at room temperature. • 8. The reading was taken in Pherastar (ext 337 nm, Em 665 & 620 nm). • 9. The results were analyzed using Graphpad prism after calculation of the z factor, signal window and % inhibition to get the IC50.
(TR-FRET usually uses a lanthanide donor and a delayed reading to cut background.)

The next assay relates to A431 cells. The assay can be described thus: Cellular proliferation (Alamar Blue) assay, A431. Conditions: Homo sapiens, A-431; A431 cells, 72 hr, Alamar Blue; read-out: A431 IC50. The assay is classed as cell-based. As for the experimental part:
(§1) Example 3: Cellular Proliferation (Alamar Blue) Assays
(§2) • 1. EGFR(D770_N771insSVD) expressing Ba/F3 stable cell line • 2. EGFR (A767_dupASV) expressing Ba/F3 stable cell line • 3. A431 cells • 4. BTER2 (A775_G776insYVMA) expressing Ba/F3 stable cell line • 5. BTER2 (WT) expressing Ba/F3 stable cell line • 6. BT-474 cells
(§3) • 1. Seed cells at 5000 for A431 and 15,000 cells for Ba/F3 in 100 μL/well in complete media (for A431: DMEM with 10% FBS and for Ba/F3 cells: RPMI with 10% FBS) in 96-well tissue culture plate. Leave outer wells without cells for background measurements. Incubate at 37 degree Celsius in 5% CO2 humidified incubator for 16-18 hours. • 2. Add 0.025 ml of 5× concentration compound dilution or DMSO control. Final compound concentration range is 10-0.0005 μM prepared in 3-fold serial dilutions. Incubate for 72 hr at 37 degree Celsius in […] humidified incubator. • 3. Add 0.0125 mL Alamar Blue™ reagent to each well with multi-channel pipette and tap gently on each side of the plate to mix. Incubate for 3 hours at 37 degree Celsius in […] humidified incubator. • 4. Read plates on fluorescence reader (Tecan Spark Control, Device: Spark, Serial #: 1801006040) at 540 nm excitation, 590 nm emission wavelength. • 5. Data analysis was performed using XLfit 5.5.0.5.
Background: Resazurin is reduced to fluorescent resorufin, in cell work by metabolically active cells.

For assay [1], the target named is EGFR (A767_dupASV) expressing Ba/F3 stable cell line (Homo sapiens, UniProt P00533, DUP767-769, cells depend on it). The assay can be described thus: Cellular proliferation (Alamar Blue) assay, EGFR A767_dupASV Ba/F3. The format is cell-based. The settings on record: EGFR A767_dupASV Ba/F3, 72 hr, read-out: A767 IC50. On the procedure: as §1, §2, §3
EGFR (A767_dupASV) expressing Ba/F3 stable cell line, sequence (P00533 with tags, fused parts or gaps DUP767-769): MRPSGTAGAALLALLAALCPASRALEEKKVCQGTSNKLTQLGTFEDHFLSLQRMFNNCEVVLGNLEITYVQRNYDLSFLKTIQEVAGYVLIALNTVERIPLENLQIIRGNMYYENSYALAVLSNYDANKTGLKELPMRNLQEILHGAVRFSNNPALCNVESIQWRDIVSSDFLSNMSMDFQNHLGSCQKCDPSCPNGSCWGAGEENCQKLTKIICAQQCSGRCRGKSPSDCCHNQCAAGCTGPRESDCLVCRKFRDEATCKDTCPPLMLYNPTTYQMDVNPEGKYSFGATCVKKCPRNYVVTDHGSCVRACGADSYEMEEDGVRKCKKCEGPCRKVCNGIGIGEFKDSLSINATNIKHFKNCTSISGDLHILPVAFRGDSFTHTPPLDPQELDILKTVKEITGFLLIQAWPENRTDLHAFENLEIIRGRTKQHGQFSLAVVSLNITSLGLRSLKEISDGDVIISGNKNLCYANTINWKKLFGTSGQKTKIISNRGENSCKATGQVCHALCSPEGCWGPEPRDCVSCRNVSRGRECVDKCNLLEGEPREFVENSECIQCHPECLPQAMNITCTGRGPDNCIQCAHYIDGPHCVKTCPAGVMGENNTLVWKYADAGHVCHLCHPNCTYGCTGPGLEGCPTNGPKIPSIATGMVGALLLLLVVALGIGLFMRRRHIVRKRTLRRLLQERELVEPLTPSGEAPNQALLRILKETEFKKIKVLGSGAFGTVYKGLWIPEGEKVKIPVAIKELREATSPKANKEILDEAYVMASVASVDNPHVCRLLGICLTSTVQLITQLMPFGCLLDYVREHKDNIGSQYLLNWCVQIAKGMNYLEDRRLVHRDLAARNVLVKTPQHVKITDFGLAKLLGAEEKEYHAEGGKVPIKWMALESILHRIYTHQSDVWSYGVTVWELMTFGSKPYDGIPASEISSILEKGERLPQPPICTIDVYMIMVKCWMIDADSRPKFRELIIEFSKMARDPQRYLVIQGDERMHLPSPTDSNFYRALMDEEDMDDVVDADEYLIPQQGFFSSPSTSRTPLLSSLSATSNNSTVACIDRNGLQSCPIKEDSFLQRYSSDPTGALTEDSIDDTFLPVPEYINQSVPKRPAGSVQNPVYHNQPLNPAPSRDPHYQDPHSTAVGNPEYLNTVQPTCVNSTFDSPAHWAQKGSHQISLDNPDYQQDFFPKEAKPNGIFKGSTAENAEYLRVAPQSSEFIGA
Assay [2] deals with EGFR(D770_N771insSVD) expressing Ba/F3 stable cell line (Homo sapiens, UniProt P00533, DUP768-770, cells depend on it). The assay can be described thus: Cellular proliferation (Alamar Blue) assay, EGFR D770_N771insSVD Ba/F3. The format is cell-based. Conditions: EGFR D770_N771insSVD Ba/F3, 72 hr, read-out: D770 IC50. On the procedure: as §1, §2, §3
EGFR(D770_N771insSVD) expressing Ba/F3 stable cell line, sequence (P00533 with tags, fused parts or gaps DUP768-770): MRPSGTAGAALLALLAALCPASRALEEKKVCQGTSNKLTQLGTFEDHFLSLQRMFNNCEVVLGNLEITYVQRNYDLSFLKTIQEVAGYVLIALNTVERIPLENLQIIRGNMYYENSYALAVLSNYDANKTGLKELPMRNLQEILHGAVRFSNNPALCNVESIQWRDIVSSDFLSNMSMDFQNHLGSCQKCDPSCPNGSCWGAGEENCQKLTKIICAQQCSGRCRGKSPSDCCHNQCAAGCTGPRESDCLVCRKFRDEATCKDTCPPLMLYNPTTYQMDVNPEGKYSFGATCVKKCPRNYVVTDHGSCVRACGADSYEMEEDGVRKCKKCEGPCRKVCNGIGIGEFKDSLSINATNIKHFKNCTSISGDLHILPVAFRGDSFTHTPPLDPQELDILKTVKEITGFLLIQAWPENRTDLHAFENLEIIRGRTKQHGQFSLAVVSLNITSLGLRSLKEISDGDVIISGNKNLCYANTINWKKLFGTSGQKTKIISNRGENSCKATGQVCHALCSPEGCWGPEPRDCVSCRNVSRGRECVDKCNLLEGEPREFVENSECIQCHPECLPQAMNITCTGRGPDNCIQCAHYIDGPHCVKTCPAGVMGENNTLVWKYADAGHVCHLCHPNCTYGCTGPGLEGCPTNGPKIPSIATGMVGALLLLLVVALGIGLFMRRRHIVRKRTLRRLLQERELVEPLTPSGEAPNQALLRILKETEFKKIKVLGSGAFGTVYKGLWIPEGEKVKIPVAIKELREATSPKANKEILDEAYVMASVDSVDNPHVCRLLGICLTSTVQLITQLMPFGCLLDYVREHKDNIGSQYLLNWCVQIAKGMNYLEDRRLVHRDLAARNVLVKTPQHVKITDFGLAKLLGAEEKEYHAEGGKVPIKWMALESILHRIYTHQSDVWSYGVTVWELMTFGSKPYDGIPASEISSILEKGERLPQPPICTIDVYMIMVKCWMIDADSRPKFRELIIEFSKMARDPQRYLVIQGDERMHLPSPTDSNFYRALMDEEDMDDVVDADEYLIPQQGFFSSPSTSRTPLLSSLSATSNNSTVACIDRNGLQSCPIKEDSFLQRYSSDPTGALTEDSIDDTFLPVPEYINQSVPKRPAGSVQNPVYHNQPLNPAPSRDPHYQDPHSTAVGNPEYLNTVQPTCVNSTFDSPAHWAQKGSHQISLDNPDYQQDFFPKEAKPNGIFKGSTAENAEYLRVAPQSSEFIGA
The target in assay [3] is HER2 (A775_G776insYVMA) expressing Ba/F3 stable cell line (Homo sapiens, UniProt P04626, DUP772-775, cells depend on it). Nature of the assay: Cellular proliferation (Alamar Blue) assay, HER2 YVMA Ba/F3. The format is cell-based. Conditions: HER2 A775_G776insYVMA Ba/F3, 72 hr, read-out: YVMA IC50. As for the experimental part:
as §1, §2, §3

Where a name gives a salt, the structure may show the parent alone.

HER2 (A775_G776insYVMA) expressing Ba/F3 stable cell line, sequence (P04626 with tags, fused parts or gaps DUP772-775): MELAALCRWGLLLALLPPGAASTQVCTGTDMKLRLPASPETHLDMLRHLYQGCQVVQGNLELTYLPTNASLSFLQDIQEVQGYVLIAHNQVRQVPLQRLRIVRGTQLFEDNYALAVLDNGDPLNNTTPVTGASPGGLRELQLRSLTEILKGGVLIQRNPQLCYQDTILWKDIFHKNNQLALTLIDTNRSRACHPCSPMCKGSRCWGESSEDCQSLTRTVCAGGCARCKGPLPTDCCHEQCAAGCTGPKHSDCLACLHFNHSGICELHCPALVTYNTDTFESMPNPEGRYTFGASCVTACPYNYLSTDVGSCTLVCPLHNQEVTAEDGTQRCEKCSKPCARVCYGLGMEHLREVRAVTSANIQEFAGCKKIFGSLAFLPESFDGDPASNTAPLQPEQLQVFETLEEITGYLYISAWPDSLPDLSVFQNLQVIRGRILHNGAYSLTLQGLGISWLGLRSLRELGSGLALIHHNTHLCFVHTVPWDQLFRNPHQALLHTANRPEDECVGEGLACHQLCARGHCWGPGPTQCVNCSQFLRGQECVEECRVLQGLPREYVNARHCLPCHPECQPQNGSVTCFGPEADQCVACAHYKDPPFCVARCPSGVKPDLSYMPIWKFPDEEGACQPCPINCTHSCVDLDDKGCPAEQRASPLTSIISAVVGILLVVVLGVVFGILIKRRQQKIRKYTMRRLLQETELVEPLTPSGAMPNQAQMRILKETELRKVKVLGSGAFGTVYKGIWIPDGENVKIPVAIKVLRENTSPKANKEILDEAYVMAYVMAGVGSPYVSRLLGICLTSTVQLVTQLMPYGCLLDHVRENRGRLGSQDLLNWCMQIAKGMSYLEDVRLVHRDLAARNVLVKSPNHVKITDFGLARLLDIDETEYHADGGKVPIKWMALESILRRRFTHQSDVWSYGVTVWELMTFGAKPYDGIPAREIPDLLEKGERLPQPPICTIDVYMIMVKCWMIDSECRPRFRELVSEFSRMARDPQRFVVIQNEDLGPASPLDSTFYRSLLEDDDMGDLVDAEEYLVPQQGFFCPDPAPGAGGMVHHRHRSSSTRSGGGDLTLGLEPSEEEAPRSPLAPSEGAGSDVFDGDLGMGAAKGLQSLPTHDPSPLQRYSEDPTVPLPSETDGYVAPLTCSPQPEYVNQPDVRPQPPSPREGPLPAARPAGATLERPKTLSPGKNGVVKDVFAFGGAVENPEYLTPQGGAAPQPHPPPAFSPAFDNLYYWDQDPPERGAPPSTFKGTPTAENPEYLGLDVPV
T1 sequence (P00533 25-1210 T790M/L858R): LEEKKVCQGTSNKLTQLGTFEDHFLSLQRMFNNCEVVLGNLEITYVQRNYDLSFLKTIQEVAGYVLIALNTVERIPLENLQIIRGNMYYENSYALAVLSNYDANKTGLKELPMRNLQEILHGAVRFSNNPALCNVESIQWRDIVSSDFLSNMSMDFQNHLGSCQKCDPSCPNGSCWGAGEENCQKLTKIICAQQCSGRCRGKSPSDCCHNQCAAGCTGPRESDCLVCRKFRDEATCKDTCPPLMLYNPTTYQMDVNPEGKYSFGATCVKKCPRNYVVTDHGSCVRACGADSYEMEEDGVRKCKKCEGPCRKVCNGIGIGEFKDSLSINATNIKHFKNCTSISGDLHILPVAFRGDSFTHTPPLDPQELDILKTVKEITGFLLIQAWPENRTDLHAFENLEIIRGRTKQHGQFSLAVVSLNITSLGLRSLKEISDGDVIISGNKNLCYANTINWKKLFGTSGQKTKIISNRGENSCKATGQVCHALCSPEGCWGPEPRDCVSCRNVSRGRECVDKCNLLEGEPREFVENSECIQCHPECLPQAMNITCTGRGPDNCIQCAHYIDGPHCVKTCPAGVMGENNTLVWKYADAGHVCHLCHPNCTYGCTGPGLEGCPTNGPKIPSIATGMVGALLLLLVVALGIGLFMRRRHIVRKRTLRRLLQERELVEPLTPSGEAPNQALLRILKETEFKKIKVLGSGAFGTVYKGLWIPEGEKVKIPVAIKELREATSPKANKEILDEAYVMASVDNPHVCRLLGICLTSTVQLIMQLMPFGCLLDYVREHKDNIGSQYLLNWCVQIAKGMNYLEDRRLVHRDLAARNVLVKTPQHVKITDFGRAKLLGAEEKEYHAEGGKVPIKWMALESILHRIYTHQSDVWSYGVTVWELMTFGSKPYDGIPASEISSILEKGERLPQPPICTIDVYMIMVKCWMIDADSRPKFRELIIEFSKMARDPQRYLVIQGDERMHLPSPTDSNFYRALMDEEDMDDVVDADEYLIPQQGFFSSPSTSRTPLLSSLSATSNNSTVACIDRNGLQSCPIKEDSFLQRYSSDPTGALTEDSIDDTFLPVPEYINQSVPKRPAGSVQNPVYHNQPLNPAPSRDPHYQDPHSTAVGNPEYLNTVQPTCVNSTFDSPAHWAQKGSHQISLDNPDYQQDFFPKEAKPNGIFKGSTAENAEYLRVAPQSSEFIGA

For `C=CC(=O)N1CC[C@@H](N2C(=O)N(Cc3ccccc3)Cc3cnc(Nc4cn(C)nc4Cl)nc32)C1` (single isomer, unassigned) [Compound 38], the figures for the IC50 on EGFR (T790M/L858R) and in the assay on A431 cells were 446 nM and 7490 nM, respectively. The GI50 in assay [1] and in assay [2] was not below 10000 nM in each case.

As for `CN(C)C/C=C/C(=O)NC1CCCC(N2C(=O)N(Cc3ccccc3)Cc3cnc(Nc4cn(C)nc4Cl)nc32)C1` (centres unmarked) [Compound 33, (E)-N-(3-(3-benzyl-7-((3-chloro-1-methyl-1H-pyrazol-4-yl)amino)-2-oxo-3,4-dihydropyrimido[4,5-d]pyrimidin-1(2H)-yl)cyclohexyl)-4-(dimethylamino)but-2-enamide], the IC50 at EGFR (T790M/L858R) was 869 nM; in the assay with A431 cells, not below 10000 nM. For the same molecule, the GI50 in assay [1] was 4080 nM; in assay [2], 3880 nM.

As for `CN(C)C/C=C/C(=O)N1CCC(N2C(=O)N(Cc3ccccc3)Cc3cnc(Nc4cn(C)nc4Cl)nc32)C1` (centres unmarked) [Compound 34, (E)-3-benzyl-7-((3-chloro-1-methyl-1H-pyrazol-4-yl)amino)-1-(1-(4-(dimethylamino)but-2-enoyl)pyrrolidin-3-yl)-3,4-dihydropyrimido[4,5-d]pyrimidin-2(1H)-one], the IC50 on EGFR (T790M/L858R) stood at 6570 nM.

With `C=CC(=O)NC1CCCC(N2C(=O)N(c3ccc(F)cc3)Cc3cnc(Nc4cn(C)nc4Cl)nc32)C1` (centres unmarked) [Compound 36, N-(3-(7-((3-chloro-1-methyl-1H-pyrazol-4-yl)amino)-3-(4-fluorophenyl)-2-oxo-3,4-dihydropyrimido[4,5-d]pyrimidin-1(2H)-yl)cyclohexyl)acrylamide], the IC50 at EGFR (T790M/L858R) was 2.97 nM; with A431 cells it was not below 10000 nM. Besides, the GI50 is 3920 nM in assay [1] and not below 10000 nM in assay [2].

`C=CC(=O)N1CC[C@H](N2C(=O)N(c3ccccc3)Cc3cnc(Nc4cn(C)nc4Cl)nc32)C1` [Compound 41, (S)-1-(1-acryloylpyrrolidin-3-yl)-7-((3-chloro-1-methyl-1H-pyrazol-4-yl)amino)-3-phenyl-3,4-dihydropyrimido[4,5-d]pyrimidin-2(1H)-one]: the results for the IC50 at EGFR (T790M/L858R) and in the assay with A431 cells were 580 nM and not below 10000 nM, respectively. For the same molecule, the GI50 in assay [1] came to 504 nM; in assay [2], 759 nM.

Turning to `CN(C)C/C=C/C(=O)N1CC[C@H](N2C(=O)N(c3ccccc3)Cc3cnc(Nc4cn(C)nc4Cl)nc32)C1` [Compound 42, (S,E)-7-((3-chloro-1-methyl-1H-pyrazol-4-yl)amino)-1-(1-(4-(dimethylamino)but-2-enoyl)pyrrolidin-3-yl)-3-phenyl-3,4-dihydropyrimido[4,5-d]pyrimidin-2(1H)-one], the IC50 on EGFR (T790M/L858R) and in the assay on A431 cells was not below 10000 nM each time. In addition, the GI50 in assay [1] and in assay [2] was not below 10000 nM in each case.

Consider `CN(C)C/C=C/C(=O)Nc1cccc(N2C(=O)N(Cc3ccccc3)Cc3cnc(Nc4cn(C5CCN(C)CC5)nc4Cl)nc32)c1` [Compound 65, (E)-N-(3-(3-benzyl-7-((3-chloro-1-(1-methylpiperidin-4-yl)-1H-pyrazol-4-yl)amino)-2-oxo-3,4-dihydropyrimido[4,5-d]pyrimidin-1(2H)-yl)phenyl)-4-(dimethylamino)but-2-enamide trifluoroacetate salt], for which the IC50 with A431 cells was not below 10000 nM. For the same molecule, the figures for the GI50 in assay [1], in assay [2] and in assay [3] were 964 nM, 1090 nM and 732 nM, respectively.

As for `CN(C)C/C=C/C(=O)Nc1cccc(N2C(=O)N(Cc3ccccc3)Cc3cnc(Nc4ccc(N5CCN(C)CC5)nc4)nc32)c1` [Compound 66, (E)-N-(3-(3-benzyl-7-((6-(4-methylpiperazin-1-yl)pyridin-3-yl)amino)-2-oxo-3,4-dihydropyrimido[4,5-d]pyrimidin-1(2H)-yl)phenyl)-4-(dimethylamino)but-2-enamide], the IC50 in the assay with A431 cells is not below 10000 nM. Besides, the results for the GI50 in assay [1], in assay [2] and in assay [3] were 3280 nM, 3190 nM and 1760 nM, respectively.

Consider `C=CC(=O)Nc1cccc(N2C(=O)N(Cc3ccccc3)Cc3cnc(Nc4ccc(N5CCN(C)CC5)nc4)nc32)c1` [Compound 67, N-(3-(3-benzyl-7-((6-(4-methylpiperazin-1-yl)pyridin-3-yl)amino)-2-oxo-3,4-dihydropyrimido[4,5-d]pyrimidin-1(2H)-yl)phenyl)acrylamide], for which the IC50 in the assay on A431 cells is not below 10000 nM. In addition, the GI50 came to 41 nM in assay [1], 84 nM in assay [2] and 90 nM in assay [3].

As for `Cc1ccc(CN2Cc3cnc(Nc4cn(C)nc4Cl)nc3N(c3cccc(NC(=O)/C=C/CN(C)C)c3)C2=O)c(C)c1` [Compound 68, (E)-N-(3-(7-((3-chloro-1-methyl-1H-pyrazol-4-yl)amino)-3-(2,4-dimethylbenzyl)-2-oxo-3,4-dihydropyrimido[4,5-d]pyrimidin-1(2H)-yl)phenyl)-4-(dimethylamino)but-2-enamide], the IC50 in the assay with A431 cells amounted to 6020 nM. Further, the GI50 in assay [1] was 356 nM; in assay [2], 798 nM; in assay [3], 632 nM.

On to `C=CC(=O)Nc1cccc(N2C(=O)N(Cc3ccc(C)cc3C)Cc3cnc(Nc4cn(C)nc4Cl)nc32)c1` [Compound 69, N-(3-(7-((3-chloro-1-methyl-1H-pyrazol-4-yl)amino)-3-(2,4-dimethylbenzyl)-2-oxo-3,4-dihydropyrimido[4,5-d]pyrimidin-1(2H)-yl)phenyl)acrylamide], for which the IC50 in the assay with A431 cells was not below 10000 nM. Further, the GI50 in assay [1] was 333 nM; in assay [2], 349 nM; in assay [3] it was 682 nM.

As to `C=CC(=O)Nc1ccccc1N1C(=O)N(c2ccccc2)Cc2cnc(Nc3cn(C)nc3Cl)nc21` [Compound 130, N-(2-(7-((3-chloro-1-methyl-1H-pyrazol-4-yl)amino)-2-oxo-3-phenyl-3,4-dihydropyrimido[4,5-d]pyrimidin-1(2H)-yl)phenyl)acrylamide], the IC50 in the assay with A431 cells was not below 10000 nM. Besides, the GI50 in assay [1] was not below 10000 nM; in assay [2] it was 9260 nM.

As for `C=CC(=O)Nc1cccc(N2C(=O)N(c3ccccc3)Cc3cnc(Nc4cn(C5CCNCC5)nc4Cl)nc32)c1` [Compound 132, N-[3-(7-{[3-chloro-1-(piperidin-4-yl)-1H-pyrazol-4-yl]amino}-2-oxo-3-phenyl-1H,2H,3H,4H-pyrimido[4,5-d][1,3]diazin-1-yl)phenyl]prop-2-enamide], the IC50 with A431 cells is not below 10000 nM. Besides, the figures for the GI50 in assay [1] and in assay [2] were 960 nM and 973 nM, respectively.
